Earlier results as cited in patent US5910307A, “Process of extracting and purifying biologically effective ingredients from combined medicinal plants and their extract composition” (priority 1996, dated 1999).

Legend:
[1] = system: chronic rheumatoid arthritis induced by Mycobacterium butyricum; settings: literature
[2] = system: biosynthesis of prostacyclin; settings: literature

Compound | anti-inflammatory and analgesic effects [1] | effect on chronic rheumatoid arthritis induced by Mycobacterium butyricum [1] | biosynthesis of prostacyclin generated in the metabolism of arachidonic acid [2]
CC1(C)CC[C@]2(C(=O)O)CC[C@]3(C)C(=CC[C@@H]4[C@@]5(C)CC[C@H](O)C(C)(C)[C@@H]5CC[C@]43C)[C@@H]2C1 [oleanolic acid] | remarkable anti-inflammatory and analgesic effects | effective | 
O=C(/C=C/c1ccc(O)c(O)c1)O[C@H](Cc1ccc(O)c(O)c1)C(=O)O [rosmarinic acid] |  |  | inhibit
